Key:
Type in all cases: cell-based
[1] = system: MCF-7; assay: CellTiter-Glo cell proliferation inhibition, MCF-7 (Effect Example 2); conditions: Homo sapiens, MCF7, 144 h, MCF-7 (CTG), 6 days, starting concentration 10 μM; for inhibition at up to 10 µM: read-out: IH % max (maximum inhibition percentage)
From the text: (§1) 1. Cell line • (1) Breast cancer cell lines and their culture media: • MCF-7 (ATCC; Cat. No.: HTB-22), a Luminal A breast cancer cell; • TamR-MCF-7 (ATCC; Cat. No.: CRL-3435), a breast cancer cell; • MCF-7 ER^D538G: a Luminal A breast cancer cell obtained by constructing MCF-7 (ATCC; Cat. No.: HTB-22) using CRISPR-Cas9 gene editing technology; • MCF-7 ER^Y537S: a Luminal A breast cancer cell obtained by constructing MCF-7 (ATCC; Cat. No.: HTB-22) using CRISPR-Cas9 gene editing technology; • MDA-MB-231: (manufacturer: Nanjing CoBioer Biosciences Co., Ltd.), a triple-negative breast cancer cell; • MDA-MB-468: (manufacturer: Nanjing CoBioer Biosciences Co., Ltd.), a triple-negative breast cancer cell.
(§2) Herein, the culture medium of MCF-7, TamR-MCF-7, MCF-7 ER^D538G, and MCF-7 ER^Y537S was EMEM; • the culture medium of MDA-MB-231 and MDA-MB-468 was DMEM.
(§3) 2. Reagents • Culture medium EMEM (Gibco, 1964507) • Culture medium DMEM (Gibco, 12430-054) • Fetal bovine serum (Gibco, 10091148) • Penicillin-streptomycin double antibody (Gibco, S110JV) • DPBS (Gibco, 14190-144) • CellTiter-Glo® assay kit (Promega, G7573) • Trypsin (0.25%) (Gibco, 25200-056) • DMSO (Sigma, D2650)
(§4) 3. Instruments • Biosafety cabinet (AIRTECH, BSC-1300A II) • Automated cell counter (Life Technologies, countess II) • Multifunctional microplate reader (Biotek, H1FM) • Orbital shaker (Hangzhou Allsheng Instruments Co., Ltd., OS-100) • XLFIT 5.3 (Inforstack Shanghai Co., Ltd.)
(§5) For this test method, the following experiments were performed in a biosafety cabinet, with the specific steps as follows: • (1) Cells were inoculated in a 96-well plate. One day later, the previous culture medium was poured off, 5 mL of DPBS was added to wash the cells, and then DPBS was pipetted and discarded. An appropriate amount of trypsin was then added. The plate was digested in a 37° C., 5% CO2 cell incubator for about 2 to 5 minutes and then taken out. Anew corresponding culture medium was added, and pipetted up and down to resuspend the cells evenly. The cells were then counted using an automated cell counter. • (2) Each cell was inoculated in columns 1 to 11 of a 96-well plate (Corning, Cat. No.: 3610) at a density of 1,000 or 2,000 cells per well in 100 μL of culture medium, and 100 μL of the corresponding culture medium without cells was added to the wells in column 12. The plate was then placed in a 37° C., 5% CO2 incubator for 24 hours. • (3) The compound of the present disclosure and the control drug fulvestrant (Selleck; Cat. No.: S1191) were then 4-fold serially diluted to 10 dose points starting at 10 μM. 10 μL of the serially diluted compound was pipetted and added to 100 μL of cells in columns 1 to 10, and 10 μL of the corresponding culture medium containing 0.33 v % DMSO was added to both columns 11 and 12. The plate was incubated in a 37° C., 5% CO2 incubator for 6 days or 72 hours (Note: column 11 was used as a MAX well with cells but without compound; column 12 was used as a MIN well without cells […]). • (4) The cell viability detection reagent in the CellTiter-Glo® assay kit was then added to the 96-well plate at 50 μL per well according to the instructions, and shaken on an orbital shaker in the dark for 5 to 10 minutes. The cell viability was then measured using a multifunctional microplate reader. Finally, the inhibition of cell proliferation by the compound of the present disclosure was plotted by XLFIT software, and the IC50 value (half inhibitory concentration) and the IH % max (maximum inhibition percentage) of the compound of the present disclosure were calculated.

[2] = system: MCF-7 ER^D538G; assay: CellTiter-Glo cell proliferation inhibition, MCF-7 ER^D538G; conditions: Homo sapiens, MCF7, 144 h; MCF-7 ER^D538G (CTG), 6 days, starting concentration 10 μM; read-out: IH % max (maximum inhibition percentage)
From the text: as §1, §2, §3, §4, §5

[3] = system: MDA-MB-468; assay: CellTiter-Glo cell proliferation inhibition, MDA-MB-468; conditions: Homo sapiens, 144 h, MDA-MB-468 (CTG), 6 days, starting concentration 10 μM; for inhibition at up to 10 µM: read-out: IH % max (maximum inhibition percentage)
From the text: as §1, §2, §3, §4, §5
Compounds D64 to D69 were tested for MDA-MB-231 (CTG) and MDA-MB-468 (CTG) with an incubation time of 72 hours in the incubator.

Q: CS(=O)(=O)c1ccc(-c2ccc3cc(O)ccc3c2Oc2ccc(OCC(=O)N3CCN(c4ccc5c(c4)CN(C4CCC(=O)NC4=O)C5=O)CC3)cc2)cc1 (stereo not shown) [Compound D54, 3-(5-(4-(2-(4-((6-hydroxy-2-(4-(methylsulfonyl)phenyl)naphthalen-1-yl)oxy)phenoxy)acetyl)piperazin-1-yl)-1-oxoisoindolin-2-yl)piperidine-2,6-dione] was tested. Which IC50 [1] did it give?
A: Its IC50 is 13.2 nM.

Q: What about the inhibition at up to 10 µM [1] of the same compound?
A: Its inhibition at up to 10 µM is 96.5%.

Q: What does the source list for CS(=O)(=O)c1ccc(-c2ccc3cc(O)ccc3c2Oc2ccc(OCCOCCOCCN3CCN(c4cccc5c4CN(C4CCC(=O)NC4=O)C5=O)CC3)cc2)cc1 (stereo not shown) [Compound D37, 3-(4-(4-(2-(2-(2-(4-((6-hydroxy-2-(4-(methylsulfonyl)phenyl)naphthalen-1-yl)oxy)phenoxy)ethoxy)ethoxy)ethyl)piperazin-1-yl)-1-oxoisoindolin-2-yl)piperidine-2,6-dione]?
A: inhibition at up to 10 µM [1]: 49%; inhibition at up to 10 µM [2]: 52%

Q: What does the source list for CS(=O)(=O)c1ccc(-c2ccc3cc(O)ccc3c2Oc2ccc(OCCOCCOCCOCCOc3cccc4c3CN(C3CCC(=O)NC3=O)C4=O)cc2)cc1 (stereo not shown) [Compound D14, 3-(4-(2-(2-(2-(2-(4-((6-hydroxy-2-(4-(methylsulfonyl)phenyl)naphthalen-1-yl)oxy)phenoxy)ethoxy)ethoxy)ethoxy)ethoxy)-1-oxoisoindolin-2-yl)piperidine-2,6-dione]?
A: inhibition at up to 10 µM [1]: 42%; inhibition at up to 10 µM [2]: 40%; inhibition at up to 10 µM [3]: 32%

Q: With CCN(CCOCCOCCOCCNc1ccc2c(c1)C(=O)N(C1CCC(=O)NC1=O)C2=O)CCOc1ccc(Oc2c(-c3ccc(S(C)(=O)=O)cc3)ccc3cc(O)ccc23)cc1 (stereo not shown) [Compound D62, 2-(2,6-dioxopiperidin-3-yl)-5-((3-ethyl-1-(4-((6-hydroxy-2-(4-(methylsulfonyl)phenyl)naphthalen-1-yl)oxy)phenoxy)-6,9,12-trioxa-3-azatetradecan-14-yl)amino)isoindoline-1,3-dione] as the compound, how does the inhibition at up to 10 µM [1] read?
A: The inhibition at up to 10 µM was 45.1%.

Q: And the inhibition at up to 10 µM [3]?
A: Its inhibition at up to 10 µM is 98.5%.

Q: Which inhibition at up to 10 µM [1] does the source give for COc1ccc2c(Oc3ccc(OCCCCN4CCN(c5ccc6c(c5)CN(C5CCC(=O)NC5=O)C6=O)CC4)cc3)c(-c3ccc(S(C)(=O)=O)cc3)ccc2c1 (stereo not shown) [Compound D58, 3-(5-(4-(4-(4-((6-methoxy-2-(4-(methylsulfonyl)phenyl)naphthalen-1-yl)oxy)phenoxy)butyl)piperazin-1-yl)-1-oxoisoindolin-2-yl)piperidine-2,6-dione] here?
A: The inhibition at up to 10 µM was 39%.

Q: Which results are given for CS(=O)(=O)c1ccc(-c2ccc3cc(O)ccc3c2Oc2ccc(OCCOCCN3CCN(c4ccc5c(c4)C(=O)N(C4CCC(=O)NC4=O)C5)CC3)cc2)cc1 (stereo not shown) [Compound D43, 3-(6-(4-(2-(2-(4-((6-hydroxy-2-(4-(methylsulfonyl)phenyl)naphthalen-1-yl)oxy)phenoxy)ethoxy)ethyl)piperazin-1-yl)-1-oxoisoindolin-2-yl)piperidine-2,6-dione]?
A: inhibition at up to 10 µM [1]: 36%; inhibition at up to 10 µM [2]: 36%

Q: What does the source list for CS(=O)(=O)c1ccc(-c2ccc3cc(O)ccc3c2Oc2ccc(OCCN3CCN(c4cccc5c4CN(C4CCC(=O)NC4=O)C5=O)CC3)cc2)cc1 (stereo not shown) [Compound D53, 3-(4-(4-(2-(4-((6-hydroxy-2-(4-(methylsulfonyl)phenyl)naphthalen-1-yl)oxy)phenoxy)ethyl)piperazin-1-yl)-1-oxoisoindolin-2-yl)piperidine-2,6-dione]?
A: inhibition at up to 10 µM [1]: 49.7%; inhibition at up to 10 µM [3]: 99.2%

Q: Which results are given for CS(=O)(=O)c1ccc(-c2ccc3cc(O)ccc3c2Oc2ccc(OCCOCCOCCOCCNc3ccc4c(c3)C(=O)N(C3CCC(=O)NC3=O)C4)cc2)cc1 (stereo not shown) [Compound D29]?
A: inhibition at up to 10 µM [1]: 47%; inhibition at up to 10 µM [2]: 47%

Q: With CCN(CCOc1ccc(Oc2c(-c3ccc(S(C)(=O)=O)cc3)ccc3cc(O)ccc23)cc1)CCN1CCN(c2ccc3c(c2)C(=O)N(C2CCC(=O)NC2=O)C3)CC1 (stereo not shown) [Compound D56] as the compound, how does the inhibition at up to 10 µM [1] read?
A: The inhibition at up to 10 µM was 55.6%.

Q: CS(=O)(=O)c1ccc(-c2ccc3cc(O)ccc3c2Oc2ccc(OCCOCCOCCOCCNc3cccc4c3CN(C3CCC(=O)NC3=O)C4=O)cc2)cc1 (stereo not shown) [Compound D20, 3-(4-((2-(2-(2-(2-(4-((6-hydroxy-2-(4-(methylsulfonyl)phenyl)naphthalen-1-yl)oxy)phenoxy)ethoxy)ethoxy)ethoxy)ethyl)amino)-1-oxoisoindolin-2-yl)piperidine-2,6-dione] was tested. Which inhibition at up to 10 µM [1] did it give?
A: The inhibition at up to 10 µM was 38%.

Q: What does the source list for CCN(CCOCCOCC(=O)N1CCN(c2ccc3c(c2)C(=O)N(C2CCC(=O)NC2=O)C3)CC1)CCOc1ccc(Oc2c(-c3ccc(S(C)(=O)=O)cc3)ccc3cc(O)ccc23)cc1 (stereo not shown) [Compound D44]?
A: inhibition at up to 10 µM [1]: 33%; inhibition at up to 10 µM [2]: 52%

Q: With COc1ccc2c(Oc3ccc(OCCN4CCN(c5ccc6c(c5)CN(C5CCC(=O)NC5=O)C6=O)CC4)cc3)c(-c3ccc(S(C)(=O)=O)cc3)ccc2c1 (stereo not shown) [Compound D3, 3-(5-(4-(2-(4-((6-methoxy-2-(4-(methylsulfonyl)phenyl)naphthalen-1-yl)oxy)phenoxy)ethyl)piperazin-1-yl)-1-oxoisoindolin-2-yl)piperidine-2,6-dione] as the compound, how does the inhibition at up to 10 µM [1] read?
A: The inhibition at up to 10 µM was 30%.

Q: And the IC50 [3]?
A: Its IC50 is 18.6 nM.

Q: And the inhibition at up to 10 µM [3]?
A: Its inhibition at up to 10 µM is 73%.

Q: Which IC50 [1] does the source give for CCN(CCCCCCCCCc1ccc2c(c1)C(=O)N(C1CCC(=O)NC1=O)C2=O)CCOc1ccc(Oc2c(-c3ccc(S(C)(=O)=O)cc3)ccc3cc(O)ccc23)cc1 (stereo not shown) [Compound D63, 2-(2,6-dioxopiperidin-3-yl)-5-(9-(ethyl(2-(4-((6-hydroxy-2-(4-(methylsulfonyl)phenyl)naphthalen-1-yl)oxy)phenoxy)ethyl)amino)nonyl)isoindoline-1,3-dione] here?
A: Its IC50 is 153 nM.

Q: What about the inhibition at up to 10 µM [1] of the same compound?
A: The inhibition at up to 10 µM was 98.9%.

Q: How did the inhibition at up to 10 µM [1] turn out when CCN(CCOCC(=O)N1CCN(c2ccc3c(c2)C(=O)N(C2CCC(=O)NC2=O)C3)CC1)CCOc1ccc(Oc2c(-c3ccc(S(C)(=O)=O)cc3)ccc3cc(O)ccc23)cc1 (stereo not shown) [Compound D50] was run?
A: The inhibition at up to 10 µM was 48.4%.

Q: Which results are given for CCN(CCOCCOCC(=O)N1CCN(c2ccc3c(c2)CN(C2CCC(=O)NC2=O)C3=O)CC1)CCOc1ccc(Oc2c(-c3ccc(S(C)(=O)=O)cc3)ccc3cc(O)ccc23)cc1 (stereo not shown) [Compound D46]?
A: inhibition at up to 10 µM [1]: 34%; inhibition at up to 10 µM [2]: 46%

Q: How did the inhibition at up to 10 µM [1] turn out when CS(=O)(=O)c1ccc(-c2ccc3cc(O)ccc3c2Oc2ccc(OCCCCN3CCN(c4ccc5c(c4)C(=O)N(C4CCC(=O)NC4=O)C5=O)CC3)cc2)cc1 (stereo not shown) [Compound D13, 2-(2,6-dioxopiperidin-3-yl)-5-(4-(4-(4-((6-hydroxy-2-(4-(methylsulfonyl)phenyl)naphthalen-1-yl)oxy)phenoxy)butyl)piperazin-1-yl)isoindoline-1,3-dione] was run?
A: Its inhibition at up to 10 µM is 34%.

Q: Which IC50 [1] does the source give for CCN(CCOCCN1CCN(c2ccc3c(c2)C(=O)N(C2CCC(=O)NC2=O)C3)CC1)CCOc1ccc(Oc2c(-c3ccc(S(C)(=O)=O)cc3)ccc3cc(O)ccc23)cc1 (stereo not shown) [Compound D51] here?
A: The IC50 was 143 nM.

Q: And the inhibition at up to 10 µM [1]?
A: Its inhibition at up to 10 µM is 52.9%.

Reference: patent US20240131168A1, “NAPHTHALENE RING-CONTAINING COMPOUND, PHARMACEUTICAL COMPOSITION CONTAINING SAME, AND USE THEREOF” (JIANGSU YAHONG MEDITECH CO., LTD., priority 2021, published 2024)
